Test results as given in patent US20080009418A1, “Selective Inhibitors” (Alchemia LTD., priority 2004, published 2008).

Experiments:
[1] = molecular target: T1, Human melanin-concentrating hormone (MCH1) (Homo sapiens, UniProt Q99705); experiment: Radioligand binding, human melanin-concentrating hormone MCH1 membranes, FlashPlate, [125I]-S36057; conditions: compound at 10 μM; for A6 radioligand binding, percentage inhibition: [125I]-S36057
T1 construct: purchased Perkin Elmer Biosignal
Outline: (§1)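 Cloned human receptor membranes were coated onto FlashPlate wells and incubated with radioligand and compound (added from a 0.5 mM DMSO daughter plate) for 1 hour at room temperature in the dark. Scintillation counting gave percent inhibition, with DMSO defining total and reference ligand defining non-specific binding.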

Mouse urotensin (mUR2) = molecular target: T2, Mouse urotensin (mUR2) (Mus musculus, UniProt Q8VIH9); experiment: Radioligand binding, mouse urotensin mUR2 membranes, FlashPlate, [125I]-Urotensin II; conditions: compound at 10 μM; for A11 radioligand binding, percentage inhibition: [125I]-Urotensin II
T2 construct: purchased Perkin Elmer Biosignal
T2 sequence (Q8VIH9 1-385): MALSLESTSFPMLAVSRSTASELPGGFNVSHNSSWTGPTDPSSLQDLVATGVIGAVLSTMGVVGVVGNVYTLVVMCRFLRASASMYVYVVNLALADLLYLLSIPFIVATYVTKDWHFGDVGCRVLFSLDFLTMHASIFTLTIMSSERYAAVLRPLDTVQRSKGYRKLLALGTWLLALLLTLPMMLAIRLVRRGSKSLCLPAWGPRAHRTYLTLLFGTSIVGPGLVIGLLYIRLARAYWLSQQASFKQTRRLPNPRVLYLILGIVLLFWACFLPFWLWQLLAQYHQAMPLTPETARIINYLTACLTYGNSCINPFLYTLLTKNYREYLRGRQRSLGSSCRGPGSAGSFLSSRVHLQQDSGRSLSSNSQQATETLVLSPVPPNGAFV
Outline: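 Cloned mouse urotensin (mUR2) receptor membranes from Perkin Elmer Biosignal were immobilized in FlashPlate microplates using a proprietary coating. Each well got 19.5 μl buffer, then 0.5 μl of DMSO, reference ligand, or compound. Adding 5 μl of [125I]-Urotensin II, diluted to 5× final concentration in binding buffer, started binding. Plates were sealed with TopSeal-A and incubated 1 hour at room temperature in the dark. Wells were counted for 30 seconds each on a TopCount after a 60-second delay, and percentage inhibition was calculated.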

Human opioid (ORL1) = molecular target: T3, Human opioid (ORL1) (Homo sapiens, UniProt P41146); experiment: Radioligand binding, human opioid ORL1 membranes, FlashPlate, [125I]-Nociceptin; conditions: compound at 10 μM; for A10 radioligand binding, percentage inhibition: [125I]-Nociceptin
T3 construct: purchased Perkin Elmer Biosignal
T3 sequence (P41146 whole entry): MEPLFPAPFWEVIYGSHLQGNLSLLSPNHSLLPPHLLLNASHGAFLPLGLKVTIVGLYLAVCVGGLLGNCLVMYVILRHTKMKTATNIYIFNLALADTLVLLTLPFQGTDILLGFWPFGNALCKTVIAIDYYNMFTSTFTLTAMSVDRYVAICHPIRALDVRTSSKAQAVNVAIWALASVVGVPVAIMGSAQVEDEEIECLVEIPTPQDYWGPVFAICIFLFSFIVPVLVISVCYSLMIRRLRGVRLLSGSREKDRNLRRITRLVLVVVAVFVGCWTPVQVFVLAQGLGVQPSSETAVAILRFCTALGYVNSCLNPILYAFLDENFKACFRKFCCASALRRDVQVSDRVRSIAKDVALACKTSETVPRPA
Outline: as §1

[2] = molecular target: T4, Human neuropeptide Y (NPY-Y1) (Homo sapiens, UniProt P25929); experiment: Radioligand binding, human neuropeptide Y NPY-Y1 membranes, FlashPlate, [125I]-PYY; conditions: compound at 10 μM; for A9 radioligand binding, percentage inhibition: [125I]-PYY
T4 construct: purchased Perkin Elmer Biosignal
T4 sequence (P25929 1-384): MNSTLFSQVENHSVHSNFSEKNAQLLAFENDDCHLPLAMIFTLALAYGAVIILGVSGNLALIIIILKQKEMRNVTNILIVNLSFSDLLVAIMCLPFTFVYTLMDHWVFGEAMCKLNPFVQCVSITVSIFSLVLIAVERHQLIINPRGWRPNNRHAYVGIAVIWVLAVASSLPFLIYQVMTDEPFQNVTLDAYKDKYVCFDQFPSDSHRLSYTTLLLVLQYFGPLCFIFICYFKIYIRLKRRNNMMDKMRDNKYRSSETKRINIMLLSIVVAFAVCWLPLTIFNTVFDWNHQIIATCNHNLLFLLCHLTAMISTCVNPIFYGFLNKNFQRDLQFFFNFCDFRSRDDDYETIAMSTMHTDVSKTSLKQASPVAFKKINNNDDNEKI
Outline: as §1

Human μ-opioid (MOP) = molecular target: T5, Human μ-opioid (MOP) (Homo sapiens, UniProt P35372); experiment: Radioligand binding, human μ-opioid (MOP) membranes, FlashPlate, [3H]-Naloxone; conditions: compound at 10 μM; for A7 radioligand binding, percentage inhibition: [3H]-Naloxone
T5 construct: purchased Perkin Elmer Biosignal
T5 sequence (P35372 whole entry): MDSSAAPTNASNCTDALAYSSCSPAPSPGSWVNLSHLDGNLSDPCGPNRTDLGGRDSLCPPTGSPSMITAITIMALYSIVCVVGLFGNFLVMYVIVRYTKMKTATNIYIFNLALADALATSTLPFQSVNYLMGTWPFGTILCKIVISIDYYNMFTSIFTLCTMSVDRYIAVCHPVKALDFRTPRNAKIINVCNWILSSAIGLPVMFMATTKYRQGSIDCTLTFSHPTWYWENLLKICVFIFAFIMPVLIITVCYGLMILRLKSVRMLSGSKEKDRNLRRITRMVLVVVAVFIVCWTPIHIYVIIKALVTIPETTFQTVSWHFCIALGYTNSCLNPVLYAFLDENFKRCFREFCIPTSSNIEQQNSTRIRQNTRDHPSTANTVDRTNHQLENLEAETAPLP
Outline: as §1

Human neurokinin (NK1) = molecular target: T6, Human neurokinin (NK1) (Homo sapiens, UniProt P25103); experiment: Radioligand binding, human neurokinin NK1 membranes, filtration, [125I]-Substance P; conditions: compound at 10 μM; for A8 radioligand binding, percentage inhibition: [125I]-Substance P
T6 construct: purchased Perkin Elmer Biosignal
T6 sequence (P25103 whole entry): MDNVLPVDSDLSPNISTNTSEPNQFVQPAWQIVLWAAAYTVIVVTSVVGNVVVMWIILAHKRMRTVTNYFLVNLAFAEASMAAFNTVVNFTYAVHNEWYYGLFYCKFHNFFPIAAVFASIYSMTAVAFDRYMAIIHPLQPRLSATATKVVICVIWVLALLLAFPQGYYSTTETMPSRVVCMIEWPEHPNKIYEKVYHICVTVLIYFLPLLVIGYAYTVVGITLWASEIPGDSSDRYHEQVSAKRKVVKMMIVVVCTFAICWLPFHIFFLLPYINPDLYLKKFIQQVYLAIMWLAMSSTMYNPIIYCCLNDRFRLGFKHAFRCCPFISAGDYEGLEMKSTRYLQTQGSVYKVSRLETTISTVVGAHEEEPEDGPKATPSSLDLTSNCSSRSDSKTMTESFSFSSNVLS
Outline: (§2)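 Filtration binding on cloned human receptor membranes (1 Unit/well), [125I]-Substance P for NK1 and [3H]-Diprenorphine for KOP, 1 h at room temperature. Filters PEI-presoaked, washed with cold 50 mM Tris-HCl pH 7.4, counted by scintillation; percent inhibition calculated, reference ligand defining non-specific binding.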

Human κ-Opioid (KOP) = molecular target: T7, Human κ-Opioid (KOP) (Homo sapiens, UniProt P41145); experiment: Radioligand binding, human κ-opioid (KOP) membranes, filtration, [3H]-Diprenorphine; conditions: compound at 10 μM; for A2 radioligand binding, percentage inhibition: [3H]-Diprenorphine
T7 construct: purchased Perkin Elmer Biosignal
T7 sequence (P41145 whole entry): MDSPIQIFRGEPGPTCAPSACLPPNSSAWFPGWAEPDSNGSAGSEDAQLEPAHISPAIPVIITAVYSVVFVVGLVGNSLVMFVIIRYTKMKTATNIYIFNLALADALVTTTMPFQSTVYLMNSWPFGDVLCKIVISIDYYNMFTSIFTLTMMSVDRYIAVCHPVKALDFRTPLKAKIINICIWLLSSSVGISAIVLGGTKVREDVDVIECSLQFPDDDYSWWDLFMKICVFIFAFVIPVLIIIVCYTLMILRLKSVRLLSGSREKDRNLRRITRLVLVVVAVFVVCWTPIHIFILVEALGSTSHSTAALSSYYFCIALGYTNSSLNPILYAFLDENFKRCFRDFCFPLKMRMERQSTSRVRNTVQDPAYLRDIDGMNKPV
Outline: as §2

Human δ-opioid (DOP) = molecular target: T8, Human δ-opioid (DOP) (Homo sapiens, UniProt P41143); experiment: Radioligand binding, human δ-opioid (DOP) membranes, FlashPlate, [3H]-Bremazocine; conditions: compound at 10 μM; for A1 radioligand binding, percentage inhibition: [3H]-Bremazocine
T8 construct: purchased Perkin Elmer Biosignal
T8 sequence (P41143 whole entry): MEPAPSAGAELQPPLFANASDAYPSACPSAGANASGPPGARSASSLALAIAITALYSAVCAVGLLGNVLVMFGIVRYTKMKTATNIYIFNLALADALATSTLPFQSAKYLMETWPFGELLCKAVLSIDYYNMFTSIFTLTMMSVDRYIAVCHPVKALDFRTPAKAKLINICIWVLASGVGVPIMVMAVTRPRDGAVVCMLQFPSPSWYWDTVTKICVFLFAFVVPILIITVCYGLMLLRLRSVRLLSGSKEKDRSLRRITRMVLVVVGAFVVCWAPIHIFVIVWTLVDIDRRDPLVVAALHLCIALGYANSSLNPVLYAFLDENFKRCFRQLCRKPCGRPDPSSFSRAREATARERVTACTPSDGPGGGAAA
Outline: as §1

Human Melanocortin (MC3) = molecular target: T9, Human Melanocortin (MC3) (Homo sapiens, UniProt P41968); experiment: Radioligand binding, human melanocortin MC3 membranes, FlashPlate, [125I]-NDP-αMSH; conditions: compound at 10 μM; for A3 radioligand binding, percentage inhibition: [125I]-NDP-αMSH
T9 construct: purchased Perkin Elmer Biosignal
T9 sequence (P41968 whole entry): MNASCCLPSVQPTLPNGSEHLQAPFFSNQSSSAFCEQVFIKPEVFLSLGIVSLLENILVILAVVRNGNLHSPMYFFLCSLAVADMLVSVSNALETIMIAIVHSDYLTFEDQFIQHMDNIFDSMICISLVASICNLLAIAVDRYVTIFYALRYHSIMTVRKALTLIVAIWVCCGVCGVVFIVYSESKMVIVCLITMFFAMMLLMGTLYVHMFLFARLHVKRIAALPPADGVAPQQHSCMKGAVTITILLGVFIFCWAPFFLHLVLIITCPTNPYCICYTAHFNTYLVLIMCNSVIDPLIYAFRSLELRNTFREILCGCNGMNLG
Outline: as §1

Human melanocortin (MC5) = molecular target: T10, Human melanocortin (MC5) (Homo sapiens, UniProt P33032); experiment: Radioligand binding, human melanocortin MC5 membranes, FlashPlate, [125I]-NDP-αMSH; conditions: compound at 10 μM; for A5 radioligand binding, percentage inhibition: [125I]-NDP-αMSH
T10 construct: purchased Perkin Elmer Biosignal
T10 sequence (P33032 whole entry): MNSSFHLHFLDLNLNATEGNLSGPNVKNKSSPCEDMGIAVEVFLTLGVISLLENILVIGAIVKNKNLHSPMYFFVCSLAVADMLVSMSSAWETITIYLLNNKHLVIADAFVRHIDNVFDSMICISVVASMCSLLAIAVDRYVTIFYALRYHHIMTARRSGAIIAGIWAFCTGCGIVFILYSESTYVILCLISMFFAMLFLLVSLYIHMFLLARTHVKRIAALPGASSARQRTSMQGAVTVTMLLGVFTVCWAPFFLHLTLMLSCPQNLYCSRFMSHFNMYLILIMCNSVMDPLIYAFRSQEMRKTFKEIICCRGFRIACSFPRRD
Outline: as §1

Human Melanocortin (MC4) = molecular target: T11, Human Melanocortin (MC4) (Homo sapiens, UniProt P32245); experiment: Radioligand binding, human melanocortin MC4 membranes, FlashPlate, [125I]-NDP-αMSH; conditions: compound at 10 μM; for A4 radioligand binding, percentage inhibition: [125I]-NDP-αMSH
T11 construct: purchased Perkin Elmer Biosignal
T11 sequence (P32245 whole entry): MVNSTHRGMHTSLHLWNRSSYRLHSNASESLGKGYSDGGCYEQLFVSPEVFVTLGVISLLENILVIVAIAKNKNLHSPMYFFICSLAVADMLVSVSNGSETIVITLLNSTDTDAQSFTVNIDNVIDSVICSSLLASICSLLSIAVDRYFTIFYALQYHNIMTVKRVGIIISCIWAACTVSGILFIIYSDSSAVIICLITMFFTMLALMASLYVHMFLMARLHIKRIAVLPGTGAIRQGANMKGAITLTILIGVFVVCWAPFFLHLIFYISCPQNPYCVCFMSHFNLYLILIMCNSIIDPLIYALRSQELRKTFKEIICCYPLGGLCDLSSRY
Outline: as §1

T1 sequence (Q99705 whole entry): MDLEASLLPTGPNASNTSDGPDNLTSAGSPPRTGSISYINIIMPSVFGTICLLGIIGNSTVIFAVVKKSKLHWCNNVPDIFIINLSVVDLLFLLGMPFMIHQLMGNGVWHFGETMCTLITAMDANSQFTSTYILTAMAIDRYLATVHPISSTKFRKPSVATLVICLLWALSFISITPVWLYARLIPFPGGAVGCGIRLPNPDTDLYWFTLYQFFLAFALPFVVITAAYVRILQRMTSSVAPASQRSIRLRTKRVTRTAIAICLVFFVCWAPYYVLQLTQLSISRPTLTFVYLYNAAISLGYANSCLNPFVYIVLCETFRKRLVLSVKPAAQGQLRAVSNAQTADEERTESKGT

| SMILES | A6 radioligand binding, percentage inhibition [1] | A11 radioligand binding, percentage inhibition (Mouse urotensin (mUR2)) | A10 radioligand binding, percentage inhibition (Human opioid (ORL1)) | A9 radioligand binding, percentage inhibition [2] | A7 radioligand binding, percentage inhibition (Human μ-opioid (MOP)) | A8 radioligand binding, percentage inhibition (Human neurokinin (NK1)) | A2 radioligand binding, percentage inhibition (Human κ-Opioid (KOP)) | A1 radioligand binding, percentage inhibition (Human δ-opioid (DOP)) | A3 radioligand binding, percentage inhibition (Human Melanocortin (MC3)) | A5 radioligand binding, percentage inhibition (Human melanocortin (MC5)) | A4 radioligand binding, percentage inhibition (Human Melanocortin (MC4)) | further results |
| --- | --- | --- | --- | --- | --- | --- | --- | --- | --- | --- | --- | --- |
| COC[C@H]1OC(OCc2ccc(-c3ccccc3)cc2)[C@H](NC(=O)CCCNC(=N)N)[C@@H](OCc2ccc(Cl)cc2)[C@@H]1O (stereo partly drawn) [compound 13] | – | – | – | – | – | – | – | – | – | – | – | A6 radioligand binding inhibition ([1]; human MCH1 membranes): + (“+” indicates greater than 50% inhibition at 10 μM); A11 radioligand binding inhibition (Mouse urotensin (mUR2); mouse urotensin mUR2 membranes): − (“−” indicates less than 50% inhibition at 10 μM); A10 radioligand binding inhibition (Human opioid (ORL1); human ORL1 membranes): − (“−” indicates less than 50% inhibition at 10 μM); A9 radioligand binding inhibition ([2]; human NPY-Y1 membranes): − (“−” indicates less than 50% inhibition at 10 μM); A7 radioligand binding inhibition (Human μ-opioid (MOP); human μ-opioid (MOP) membranes): + (“+” indicates greater than 50% inhibition at 10 μM); A8 radioligand binding inhibition (Human neurokinin (NK1); human neurokinin NK1 membranes): + (“+” indicates greater than 50% inhibition at 10 μM); A2 radioligand binding inhibition (Human κ-Opioid (KOP); human κ-opioid (KOP) membranes): − (“−” indicates less than 50% inhibition at 10 μM); A1 radioligand binding inhibition (Human δ-opioid (DOP); human δ-opioid (DOP) membranes): − (“−” indicates less than 50% inhibition at 10 μM); A3 radioligand binding inhibition (Human Melanocortin (MC3); human melanocortin MC3 membranes): − (“−” indicates less than 50% inhibition at 10 μM); A5 radioligand binding inhibition (Human melanocortin (MC5); human melanocortin MC5 membranes): + (“+” indicates greater than 50% inhibition at 10 μM); A4 radioligand binding inhibition (Human Melanocortin (MC4); human melanocortin MC4 membranes): − (“−” indicates less than 50% inhibition at 10 μM) |
| COCC1OC(OCc2ccccc2)C(NC(=O)CCNC(=N)N)C(OCc2ccc(Cl)cc2)C1O (stereo not drawn) [compound 179] | + (“+” indicates greater than 50% inhibition at 10 μM) | − (“−” indicates less than 50% inhibition at 10 μM) | − (“−” indicates less than 50% inhibition at 10 μM) | − (“−” indicates less than 50% inhibition at 10 μM) | − (“−” indicates less than 50% inhibition at 10 μM) | + (“+” indicates greater than 50% inhibition at 10 μM) | − (“−” indicates less than 50% inhibition at 10 μM) | + (“+” indicates greater than 50% inhibition at 10 μM) | + (“+” indicates greater than 50% inhibition at 10 μM) | + (“+” indicates greater than 50% inhibition at 10 μM) | + (“+” indicates greater than 50% inhibition at 10 μM) | – |
| COC[C@H]1OC(OCc2ccc3ccccc3c2)[C@H](NC(=O)CCCN)[C@@H](OCc2cccc(O)c2)[C@@H]1O (stereo partly drawn) [compound 134] | − (“−” indicates less than 50% inhibition at 10 μM) | − (“−” indicates less than 50% inhibition at 10 μM) | − (“−” indicates less than 50% inhibition at 10 μM) | − (“−” indicates less than 50% inhibition at 10 μM) | + (“+” indicates greater than 50% inhibition at 10 μM) | − (“−” indicates less than 50% inhibition at 10 μM) | − (“−” indicates less than 50% inhibition at 10 μM) | − (“−” indicates less than 50% inhibition at 10 μM) | − (“−” indicates less than 50% inhibition at 10 μM) | − (“−” indicates less than 50% inhibition at 10 μM) | − (“−” indicates less than 50% inhibition at 10 μM) | – |
